Results: US20120282187A1 (BOEHRINGER INGELHEIM INTERNATIONAL GMBH, priority 2008, published 2012)
Where two headings read alike, the source gives them in different places. Marks after values point to notes of the source that are not given here.

Assays:
[1] = system: patients with atrial fibrillation
Protocol: The PETRO-Ex study was conducted in 52 centers in the United States, Denmark, The Netherlands, and Sweden.
PETRO-Ex began while the PETRO study was ongoing and investigators were initially kept blinded to patient treatment group until PETRO was completed. Unblinding investigators to patient treatment was possible thereafter.
Data were summarized descriptively; no hypothesis was to be tested. Events were analyzed on the basis of the treatment at onset. Incidences were reported as of patients with events as well as normalized to 100 patient-years on the respective treatment.
Patients who were down titrated to 50 mg q.d. based on a glomerular filtration rate≦50 mL/min during PETRO were excluded from the long-term trial; patients down-titrated in other dose levels remained on the q.d. treatment at that dose.
The total exposure reflects both trials, PETRO and PETRO-Ex, together.

[2] = Solid state and solubility properties; format: physicochemical
[3] = system: patients with chronic atrial fibrillation; experiment: PETRO phase 2 12-week dose finding study; format: in vivo, human
Source text: Primary endpoints were bleeding events and changes in D-dimer. […] Minor bleeding was dose related.

[4] = Clinical pharmacokinetics and pharmacodynamics of dabigatran etexilate; format: in vivo
Source text: Ezekowitz M D, et al., Dabigatran with or without concomitant aspirin compared with warfarin alone in patients with nonvalvular atrial fibrillation (PETRO study), Am. […] The PETRO study is described below.
As noted above, management of warfarin therapy is complex, and failure to adequately monitor patients is associated with risk. […] It also interacts with many common foods, drugs and alcohol which alter its therapeutic effect, putting patients at risk of either a bleeding or thrombotic event. Therefore, warfarin therapy requires careful individualized dosing and frequent monitoring. The significant limitations of VKAs have created a need for an oral anticoagulant with a rapid onset of action, minimal drug interactions, and a predictable anticoagulation effect that needs no monitoring.
Peak levels are seen within 2-3 hours of oral administration. […] Steady-state is reached within 2-3 days with a twice daily regimen. […] The remainder undergoes conjugation with glucuronic acid to form acylglucuronides which are excreted primarily in the bile.

[5] = PETRO-Ex, including bleeding and thrombotic events

## CCCCCCOC(=O)NC(=N)c1ccc(NCc2nc3cc(C(=O)N(CCC(=O)OCC)c4ccccn4)ccc3n2C)cc1 [Dabigatran etexilate, 1-methyl-2-[N-[4-(N-n-hexyloxycarbonylamidino)phenyl]aminomethyl]benzimidazol-5-ylcarboxylic acid-N-(2-pyridyl)-N-(2-ethoxycarbonylethyl)amides]
[1]; 300 mg b.i.d.
  Major bleeding events: 12.2 % per year
  Other MACE, number: 1
  Stroke and Systemic Thromboembolism, number: 1
  TIA, number: 0
  bleeding events: more than 12 per 100 years
[1]; 300 mg q.d.
  ALT or AST >2xULN, number: 3
  ALT or AST >2xULN, rate: 1.5 per 100 patient-years
  ALT or AST >3xULN and Bili >2xULN within 30 days, number: 1
  ALT or AST >3xULN and Bili >2xULN within 30 days, rate: 0.5 per 100 patient-years
  ALT or AST >3xULN, number: 3
  ALT or AST >3xULN, rate: 1.5 per 100 patient-years
  ALT or AST >5xULN, number: 3
  ALT or AST >5xULN, rate: 1.5 per 100 patient-years
  Adverse Events leading to premature discontinuation, number: 19
  Adverse Events leading to premature discontinuation, rate: 9.6 per 100 patient-years
  MI, number: 1
  Major Bleeds with aspirin, number: 2
  Major Bleeds with aspirin, rate: 3.6 per 100 patient-years
  Major Bleeds without aspirin, number: 3
  Major Bleeds without aspirin, rate: 2.1 per 100 patient-years
  Major Bleeds, number: 5
  Major Bleeds, rate: 2.5 per 100 patient-years
  Major bleeding events: 2.5 % per year
  Other MACE, number: 1
  Stroke and Systemic Thromboembolism, number: 5
  TIA, number: 0
  fatal major bleeds, number: 1
[1]; 300 mg twice daily
  tolerability: not tolerable
[1]; PETRO-Ex
  Serious adverse events: cardiac disorders: 22%
  Serious adverse events: cardiac disorders, pts: 80
  Serious adverse events: gastrointestinal disorders: 7.8%
  Serious adverse events: gastrointestinal disorders, pts: 28
  Serious adverse events: infections: 9.4%
  Serious adverse events: infections, pts: 34
  Serious adverse events: nervous system disorders: 9.1%
  Serious adverse events: nervous system disorders, pts: 33
[1]; PETRO-Ex, 150 mg b.i.d., without concomitant aspirin
  Major bleeding events (per 100 patient years): 3.2%*
[1]; PETRO-Ex, All doses
  LFT abnormalities >3 x-ULN (per 100 patient years): 1.7%
[1]; [5]
  Serious adverse events: 51%
  Serious adverse events, patients: 184
[1]; Total (all doses)
  ALT or AST >2xULN, number: 30
  ALT or AST >2xULN, rate: 2.9 per 100 patient-years
  ALT or AST >3xULN and Bili >2xULN within 30 days, number: 4
  ALT or AST >3xULN and Bili >2xULN within 30 days, rate: 0.4 per 100 patient-years
  ALT or AST >3xULN, number: 18
  ALT or AST >3xULN, rate: 1.7 per 100 patient-years
  ALT or AST >5xULN, number: 11
  ALT or AST >5xULN, rate: 1.1 per 100 patient-years
  Adverse Events leading to premature discontinuation, number: 120
  Adverse Events leading to premature discontinuation, rate: 11.5 per 100 patient-years
  MI, number: 7
  Major Bleeds with aspirin, number: 19
  Major Bleeds with aspirin, rate: 8.5 per 100 patient-years
  Major Bleeds without aspirin, number: 26
  Major Bleeds without aspirin, rate: 3.2 per 100 patient-years
  Major Bleeds, number: 44
  Major Bleeds, rate: 4.2 per 100 patient-years
  Other MACE, number: 11
  Stroke and Systemic Thromboembolism, number: 20
  TIA, number: 1
[1]; Total (all doses), listed as dabigatran etexilate
  ALT or AST >3xULN and Bili >2xULN within 30 days, number: four
[1]; all doses
  concomitant bilirubin elevation >2xULN within 30 days of transaminase elevations >3xULN: 0.4 % per year
  elevated liver transaminases, AST or ALT >3xULN: 1.7 % per year
  fatal intracranial bleeds, number: Three
  fatal major bleeds, number: Five
  transaminases (AST or ALT) >5xULN: 1.1 % per year
[1]; concomitant aspirin vs. none
  bleeding event risk ratio: 2.70
[1]; doses ≦150 mg/day (150 mg q.d. combined with 50 mg b.i.d.)
  major bleed rate: 3.7 % per year
[1]; on concomitant aspirin
  bleeding event rate: 8.5 % per year
[1]; without concomitant aspirin
  bleeding event rate: 3.2 % per year
[2]
  hygroscopicity: hygroscopic
  solubility in water: sparingly soluble in water
[3]; 300 mg b.i.d. plus ASA groups
  Major bleeding events: 6%
  major bleeding events, number: Four
[3]; 50, 150, 300 mg b.i.d.
  Minor bleeding: dose related
[3]; all dabigatran etexilate-treated patients
  Elevated transaminases >3× upper limit of normal (ULN): 0.9%
[3]; of 432 dabigatran etexilate-treated patients
  Elevated transaminases >3× upper limit of normal (ULN), number of patients: 4
[4]; concomitant with dabigatran etexilate
  effect of oral strong P-gp inhibitors verapamil, quinidine or amiodarone on dabigatran plasma concentrations: elevate dabigatran plasma concentrations
[4]; in vivo
  food interactions: no food interactions
[4]; time after dosing
  onset of anticoagulant effect: one
